Assay results published in patent US20250090540A1, “PI3K-ALPHA INHIBITORS AND METHODS OF USE THEREOF” (Relay Therapeutics, Inc., priority 2021, published 2025).
Where two headings read alike, the source gives them in different places.

Molecular target: H1047R PIK3CA enzyme (Homo sapiens, UniProt P42336, H1047R)
Assay: ADP-Glo Biochemical PIK3CA Kinase Assay
[1] = ADP-Glo biochemical PIK3CA kinase assay

H1047R PIK3CA enzyme, sequence (P42336 whole entry H1047R): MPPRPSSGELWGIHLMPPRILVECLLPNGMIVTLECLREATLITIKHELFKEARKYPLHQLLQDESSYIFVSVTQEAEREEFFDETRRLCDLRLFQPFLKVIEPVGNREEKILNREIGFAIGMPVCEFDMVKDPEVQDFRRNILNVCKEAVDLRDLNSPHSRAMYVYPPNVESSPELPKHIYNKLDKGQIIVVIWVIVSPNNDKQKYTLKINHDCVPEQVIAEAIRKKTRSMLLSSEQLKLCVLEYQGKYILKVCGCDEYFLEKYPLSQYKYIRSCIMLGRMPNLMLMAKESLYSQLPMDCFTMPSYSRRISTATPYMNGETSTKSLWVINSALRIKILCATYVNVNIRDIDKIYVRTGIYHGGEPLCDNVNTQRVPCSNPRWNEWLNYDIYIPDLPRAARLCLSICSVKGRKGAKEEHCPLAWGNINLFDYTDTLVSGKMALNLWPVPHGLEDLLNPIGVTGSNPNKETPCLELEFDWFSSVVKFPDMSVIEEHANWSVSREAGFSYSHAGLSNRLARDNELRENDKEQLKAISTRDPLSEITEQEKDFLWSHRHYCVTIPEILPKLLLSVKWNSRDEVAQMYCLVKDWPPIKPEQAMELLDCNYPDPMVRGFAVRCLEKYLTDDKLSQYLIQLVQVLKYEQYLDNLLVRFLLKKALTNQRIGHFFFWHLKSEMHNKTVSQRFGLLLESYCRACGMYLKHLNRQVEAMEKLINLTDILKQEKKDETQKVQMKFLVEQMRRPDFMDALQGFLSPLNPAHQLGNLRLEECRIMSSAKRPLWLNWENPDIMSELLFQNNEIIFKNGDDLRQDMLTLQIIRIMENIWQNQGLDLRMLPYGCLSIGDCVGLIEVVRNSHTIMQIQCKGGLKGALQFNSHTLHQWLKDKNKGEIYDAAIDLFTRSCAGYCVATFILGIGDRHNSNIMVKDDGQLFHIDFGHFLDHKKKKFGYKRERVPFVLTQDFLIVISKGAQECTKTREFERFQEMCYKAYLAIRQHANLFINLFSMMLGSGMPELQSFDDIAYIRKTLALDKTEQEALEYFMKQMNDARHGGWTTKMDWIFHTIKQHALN
H1047R PIK3CA enzyme, sequence (P27986 whole entry partner): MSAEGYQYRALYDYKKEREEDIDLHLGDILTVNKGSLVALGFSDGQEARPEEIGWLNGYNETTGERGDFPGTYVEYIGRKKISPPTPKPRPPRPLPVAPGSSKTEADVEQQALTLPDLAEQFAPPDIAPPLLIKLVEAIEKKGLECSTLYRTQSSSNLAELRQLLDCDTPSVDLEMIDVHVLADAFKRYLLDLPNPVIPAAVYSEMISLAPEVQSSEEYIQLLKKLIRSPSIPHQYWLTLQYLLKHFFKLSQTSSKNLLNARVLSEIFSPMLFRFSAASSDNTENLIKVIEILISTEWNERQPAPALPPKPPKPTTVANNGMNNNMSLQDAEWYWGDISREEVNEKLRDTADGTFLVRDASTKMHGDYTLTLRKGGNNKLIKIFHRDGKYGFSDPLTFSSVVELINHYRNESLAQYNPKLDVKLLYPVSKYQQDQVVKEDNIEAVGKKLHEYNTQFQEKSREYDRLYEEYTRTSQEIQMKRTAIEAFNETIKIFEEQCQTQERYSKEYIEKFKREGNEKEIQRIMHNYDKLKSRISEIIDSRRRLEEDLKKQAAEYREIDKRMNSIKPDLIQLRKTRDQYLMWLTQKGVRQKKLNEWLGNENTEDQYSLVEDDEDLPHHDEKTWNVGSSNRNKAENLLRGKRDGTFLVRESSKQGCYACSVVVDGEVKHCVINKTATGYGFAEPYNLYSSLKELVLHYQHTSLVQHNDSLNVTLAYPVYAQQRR

Row | SMILES | IC50 [1] | IC50
1 | CNC(=O)c1cnc(Nc2cc(F)ccc2Cl)c(NC(=O)c2csc3ccccc23)c1 [I-775] | 1 to 10 µM | 
2 | CNC(=O)c1cnc(Nc2ccccc2C)c(N(CC(N)=O)C(=O)c2csc3ccccc23)c1 [I-776] | 1 to 10 µM | 
3 | COc1cncc(CNC(=O)c2cc(NC(=O)c3csc4ccccc34)n(CC3CCC3)c(=O)c2)c1 [I-777] | 10 to 100 µM | 
4 | Nc1c2c(nn1C(=O)c1cc(F)cc(C(F)(F)F)c1)CCCC2 [I-778] | 10 to 100 µM | 
5 | Cc1nn(C(=O)c2cc(F)cc(C(F)(F)F)c2)c(N)c1-c1ccccc1 [I-779] | 1 to 10 µM | 
6 | Nc1cnc(Nc2cc(F)ccc2Cl)c(NC(=O)c2cc(F)cc(C(F)(F)F)c2)c1 [I-780] | 10 to 100 µM | 
7 | O=C(Nc1cnccc1-n1cccn1)c1cc(F)cc(C(F)(F)F)c1 [I-781] | 1 to 10 µM | 
8 | CC(C)(O)c1cnc(Nc2cc(F)ccc2Cl)c(NC(=O)c2cc(F)cc(C(F)(F)F)c2)c1 [I-782] | 1 to 10 µM | 
9 | Nc1cnc(Nc2cc(F)ccc2Cl)c(NC(=O)c2nsc3ccccc23)c1 [I-784] | 10 to 100 µM | 
10 | O=C(NCc1ccccc1CN1CCCCC1)c1cc(F)cc(C(F)(F)F)c1 [I-785] | 10 to 100 µM | 
11 | O=C(Nc1cc(C2CC2)nn1-c1ccccc1)c1cc(F)cc(C(F)(F)F)c1 [I-786] | 10 to 100 µM | 
12 | Cc1cccc(-n2nc(C)cc2NC(=O)c2cc(F)cc(C(F)(F)F)c2)c1 [I-787] | 10 to 100 µM | 
13 | O=C(Nc1cc(C2CC2)nn1-c1ccccc1F)c1cc(F)cc(C(F)(F)F)c1 [I-788] | 10 to 100 µM | 
14 | Cc1cc(NC(=O)c2cc(F)cc(C(F)(F)F)c2)n(-c2ccccc2F)n1 [I-789] | 1 to 10 µM | 
15 | COc1nccc(NC(=O)c2cc(F)cc(C(F)(F)F)c2)c1Nc1ccccc1Cl [I-790] | 1 to 10 µM | 
16 | Nc1cc(-c2ccc(F)cc2)nn1-c1nc2ccccc2[nH]1 [I-792] | 1 to 10 µM | 
17 | N#Cc1cccc(NC(=O)c2cc(F)cc(C(F)(F)F)c2)c1Cc1ccccc1Cl [I-793] | 0.1 to 0.5 µM | 

Row | SMILES | IC50 [1] | IC50
18 | O=C(Nc1ccn2cnnc2c1Nc1ccccc1Cl)c1cc(F)cc(C(F)(F)F)c1 [I-794] | 10 to 100 µM | 
19 | CNC(=O)c1cnc(Nc2cc(F)ccc2Cl)c(NC(=O)N2CCc3ccccc32)c1 [I-797, N-{2-[(2-chloro-5-fluorophenyl)amino]-5-(methylcarbamoyl)pyridin-3-yl}-2,3-dihydro-1H-indole-1-carboxamide] | 10 to 100 µM | 
20 | CNC(=O)c1cnc(Nc2ccccc2C)c(NC(=O)NC23C[C@H]4C[C@@H](C2)C[C@@H](C3)C4)c1 [I-798] | 1 to 10 µM | 
21 | CNC(=O)c1cnc(Nc2cc(F)ccc2Cl)c(NC(=O)NC23C[C@H]4C[C@@H](C2)C[C@@H](C3)C4)c1 [I-799] |  | 10 to 100 µM
22 | O=C(Nc1cc(-c2cnn(C(F)F)c2)cnc1Nc1cc(F)ccc1Cl)c1cc(F)cc(C(F)(F)F)c1 [I-803, N-(2-((2-chloro-5-fluorophenyl)amino)-5-(1-(difluoromethyl)-1H-pyrazol-4-yl)pyridin-3-yl)-3-fluoro-5-(trifluoromethyl)benzamide] |  | 1 to 10 µM
23 | O=C(Nc1cc(-c2ccc3ncnn3c2)cnc1Nc1cc(F)ccc1Cl)c1cc(F)cc(C(F)(F)F)c1 [I-804] |  | 10 to 100 µM
24 | CNC(=O)c1cnc(Nc2cc(F)ccc2Cl)c(Nc2nccc3c(Cl)cccc23)c1 [I-805, 6-((2-chloro-5-fluorophenyl)amino)-5-((5-chloroisoquinolin-1-yl)amino)-N-methylnicotinamide] |  | 10 to 100 µM
25 | O=C(Nc1ccnn1-c1ccccc1)c1cc(F)cc(C(F)(F)F)c1 [I-806] |  | 10 to 100 µM
26 | O=C(Nc1cccc(=O)n1Cc1ccccc1Cl)c1csc2ccccc12 [I-807] |  | 10 to 100 µM
27 | CNC(=O)c1cnc(Nc2cc(F)ccc2Cl)c(NC(=O)c2cc(F)cc(C(F)(F)F)c2)c1 [I-810] |  | 10 to 100 µM
28 | O=C(Nc1cc(-c2ccc3ncnn3c2)cnc1Nc1cc(CO)ccc1Cl)c1cc(F)cc(C(F)(F)F)c1 [I-811] |  | 10 to 100 µM
29 | CNC(=O)c1cnc(NC(CO)CCO)c(NC(=O)c2cc(F)cc(C(F)(F)F)c2)c1 (stereo not shown) [I-814] |  | 10 to 100 µM
30 | O=C1CCCC(c2nc3c(F)cc(C(F)(F)F)cc3[nH]2)N1Cc1cc(F)ccc1Cl (stereo not shown) [I-815] |  | 10 to 100 µM
31 | O=C(Nc1cc(-c2ccc3ncnn3c2)cnc1NC(CO)CCO)c1cc(F)cc(C(F)(F)F)c1 (stereo not shown) [I-818] |  | 10 to 100 µM
32 | O=C1NCc2ccccc2C1c1ccccc1-c1nc2c(F)cc(C(F)(F)F)cc2[nH]1 (stereo not shown) [I-820, 4-{2-[4-fluoro-6-(trifluoromethyl)-1H-1,3-benzodiazol-2-yl]phenyl}-1,2,3,4-tetrahydroisoquinolin-3-one] |  | 10 to 100 µM
33 | CNC(=O)c1cnc(-n2c(=O)ccc3ccccc32)c(NC(=O)c2cc(F)cc(C(F)(F)F)c2)c1 [I-822] |  | 10 to 100 µM
34 | CNC(=O)c1cc(NC(=O)c2cc(F)cc(C(F)(F)F)c2)c(Nc2cc(F)ccc2Cl)s1 [I-827, 5-((2-chloro-5-fluorophenyl)amino)-4-(3-fluoro-5-(trifluoromethyl)benzamido)-N-methylthiophene-2-carboxamide] |  | 0.5 to 1 µM
